US8173635B2, “Kinase inhibitors” (Vertex Pharmaceuticals Incorporated, priority 2007, dated 2012)

Columns and labels:
Type in all cases: biochemical
PKC theta kinase = PKC theta kinase (Homo sapiens, UniProt Q04759); assay: PKC theta kinase inhibition, coupled-enzyme NADH absorbance assay (Ki); conditions: 240 μM ATP, 18 nM PKC theta, 30° C.; read-out: Ki PKC theta
Summary of the method: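 Enzyme and compound equilibrated 10 min at 30 °C before reaction in HEPES pH 7.5 buffer with MgCl2, NaCl, EDTA and Brij. Activity tracked as NADH loss at 340 nm through a coupled system. Initial-rate data fitted by non-linear regression to give Ki.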

PKC alpha kinase = PKC alpha kinase (Homo sapiens, UniProt P17252); assay: PKC alpha kinase inhibition, coupled-enzyme NADH absorbance assay (Ki); conditions: 130 μM ATP, 4.5 nM PKC alpha, 30° C.; read-out: Ki PKC alpha
PKC delta kinase = PKC delta kinase (Homo sapiens, UniProt Q05655); assay: PKC delta kinase inhibition, coupled-enzyme NADH absorbance assay (Ki); conditions: 150 μM ATP, 46 nM PKC delta, 30° C.; read-out: Ki PKC delta
Summary of the method: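 Assay buffer was 100 mM HEPES pH 7.5, 10 mM MgCl2, 25 mM NaCl, 0.1 mM EDTA, 0.01% Brij. Enzyme buffer was equilibrated with compound in DMSO for 10 min at 30 °C. Ki values were derived by non-linear regression of initial rate data.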

PKC delta kinase, sequence (Q05655 whole entry): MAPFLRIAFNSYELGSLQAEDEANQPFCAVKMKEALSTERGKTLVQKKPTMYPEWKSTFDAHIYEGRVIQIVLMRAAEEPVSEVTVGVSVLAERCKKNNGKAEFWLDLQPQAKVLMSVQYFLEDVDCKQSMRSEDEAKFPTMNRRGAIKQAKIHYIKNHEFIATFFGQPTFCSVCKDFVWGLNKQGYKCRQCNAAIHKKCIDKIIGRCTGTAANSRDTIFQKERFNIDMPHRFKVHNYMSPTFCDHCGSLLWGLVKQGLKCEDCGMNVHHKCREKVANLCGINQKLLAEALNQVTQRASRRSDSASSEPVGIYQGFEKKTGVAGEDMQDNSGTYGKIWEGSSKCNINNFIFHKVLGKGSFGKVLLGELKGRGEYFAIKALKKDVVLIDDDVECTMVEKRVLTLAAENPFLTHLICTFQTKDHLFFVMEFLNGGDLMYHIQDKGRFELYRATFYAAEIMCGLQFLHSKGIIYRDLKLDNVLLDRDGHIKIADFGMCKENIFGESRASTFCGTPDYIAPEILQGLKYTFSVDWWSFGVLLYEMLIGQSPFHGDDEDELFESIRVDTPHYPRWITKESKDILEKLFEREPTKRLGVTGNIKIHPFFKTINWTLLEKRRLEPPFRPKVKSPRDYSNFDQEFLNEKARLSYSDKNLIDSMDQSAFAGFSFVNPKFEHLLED
PKC theta kinase, sequence (Q04759 whole entry): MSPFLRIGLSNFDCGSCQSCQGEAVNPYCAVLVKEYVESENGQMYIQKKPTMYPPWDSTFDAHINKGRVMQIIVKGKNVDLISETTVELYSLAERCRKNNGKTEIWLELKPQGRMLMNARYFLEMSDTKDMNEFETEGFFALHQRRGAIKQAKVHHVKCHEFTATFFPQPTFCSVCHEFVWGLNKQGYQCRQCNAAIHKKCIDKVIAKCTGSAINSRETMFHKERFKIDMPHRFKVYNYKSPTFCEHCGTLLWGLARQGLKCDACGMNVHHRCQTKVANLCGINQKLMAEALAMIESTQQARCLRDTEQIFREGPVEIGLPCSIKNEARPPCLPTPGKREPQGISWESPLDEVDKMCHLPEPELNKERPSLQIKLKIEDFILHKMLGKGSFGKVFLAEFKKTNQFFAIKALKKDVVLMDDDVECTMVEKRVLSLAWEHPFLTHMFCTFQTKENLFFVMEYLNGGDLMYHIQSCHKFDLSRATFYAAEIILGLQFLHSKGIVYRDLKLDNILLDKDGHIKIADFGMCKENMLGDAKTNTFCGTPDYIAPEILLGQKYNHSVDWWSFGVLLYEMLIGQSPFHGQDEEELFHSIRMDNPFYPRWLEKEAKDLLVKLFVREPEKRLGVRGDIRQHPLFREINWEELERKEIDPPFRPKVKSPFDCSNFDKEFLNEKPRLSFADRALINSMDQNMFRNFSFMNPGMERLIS

Row | Ki (PKC theta kinase) [nM] | Ki (PKC alpha kinase) [nM] | Ki (PKC delta kinase) [nM] | SMILES
1 | < 50 | < 50 | < 50 | CCc1n[nH]c2nccc(-c3cccc(C(C)(CC)CN)c3)c12 (stereo not drawn) [Compound 264]
2 | < 50 | < 500 | < 500 | CCc1n[nH]c2nccc(-c3cc(C)cc(C4(CN)CC4)c3)c12 [Compound 265]
3 | < 50 | < 50 | < 50 | CCC(C)(CN)c1cccc(-c2ccnc3[nH]nc(C4CC4)c23)c1 (stereo not drawn) [Compound 266]
4 | < 50 | < 500 | < 500 | Cc1cc(-c2ccnc3[nH]nc(C4CC4)c23)cc(C2(CN)CC2)c1 [Compound 268]
5 | > 700 | > 1200 | > 1200 | NCc1cccc(-c2ccnc3[nH]nc(C4CC4)c23)c1 [Compound 269]
6 | > 700 | > 1200 | > 1200 | CCc1n[nH]c2nccc(-c3cccc(CN)c3)c12 [Compound 270]
7 | < 50 | < 500 | < 500 | CCc1cc(-c2ccnc3[nH]nc(C(F)(F)F)c23)cc(C(C)(CC)CN)c1 (stereo not drawn) [Compound 271]
8 | < 50 | < 500 | < 500 | N#CC1(c2cccc(-c3ccnc4[nH]nc(C(F)(F)F)c34)c2)CC1 [Compound 273]
9 | < 50 | < 500 | < 500 | Cc1cc(-c2ccnc3[nH]nc(C(F)(F)F)c23)cc(C2(CN)CCOCC2)c1 [Compound 275]
10 | < 50 | < 500 | < 2800 | NCC1(c2cc(F)cc(-c3ccnc4[nH]nc(C(F)(F)F)c34)c2)CCOCC1 [Compound 276]
11 | < 50 | < 50 | < 50 | CCC(C)(CN)c1cc(F)cc(-c2ccnc3[nH]nc(C(F)(F)F)c23)c1 (stereo not drawn) [Compound 277]
12 | < 50 | < 500 | < 500 | NCC1(c2cccc(-c3ccnc4[nH]nc(C(F)(F)F)c34)c2)CC1 [Compound 278]
13 | < 50 | < 2800 | < 2800 | N#CC1(c2cccc(-c3ccnc4[nH]nc(C(F)(F)F)c34)c2)CCC1 [Compound 279]
14 | < 50 | < 500 | < 50 | CCC(CN)c1cccc(-c2ccnc3[nH]nc(C(F)(F)F)c23)c1 (stereo not drawn) [Compound 281]
15 | < 50 | < 500 | < 500 | Cc1cc(-c2ccnc3[nH]nc(C(F)(F)F)c23)cc(C2(CN)CC2)c1 [Compound 282]
16 | < 50 | < 500 | < 2800 | N#CC1(c2cc(CCCN)cc(-c3ccnc4[nH]nc(C(F)(F)F)c34)c2)CC1 [Compound 283, 1-(3-(3-aminopropyl)-5-(3-(trifluoromethyl)-1H-pyrazolo[3,4-b]pyridin-4-yl)phenyl)cyclopropanecarbonitrile]
17 | < 50 | < 2800 | < 500 | COCCC(CN)c1cccc(-c2ccnc3[nH]nc(C(F)(F)F)c23)c1 (stereo not drawn) [Compound 284]
18 | < 50 | < 500 | < 500 | COCCC(C)(CN)c1cccc(-c2ccnc3[nH]nc(C(F)(F)F)c23)c1 (stereo not drawn) [Compound 285]

Row | Ki (PKC theta kinase) [nM] | Ki (PKC alpha kinase) [nM] | Ki (PKC delta kinase) [nM] | SMILES
19 | < 50 | < 500 | < 500 | COCC[C@@](C)(CN)c1cccc(-c2ccnc3[nH]nc(C(F)(F)F)c23)c1 [Compound 286]
20 | < 50 | < 500 | < 2800 | COCC[C@](C)(CN)c1cccc(-c2ccnc3[nH]nc(C(F)(F)F)c23)c1 [Compound 287]
21 | < 50 | < 500 | < 2800 | CCC1(c2cccc(-c3ccnc4[nH]nc(C(F)(F)F)c34)c2)CNC(=O)O1 (stereo not drawn) [Compound 288]
22 | > 700 | > 1200 | > 2000 | FC(F)(F)c1n[nH]c2nccc(-c3cccc(C4(COCc5ccccc5)CC4)c3)c12 [Compound 289]
23 | < 50 | < 2800 | < 500 | OCC1(c2cccc(-c3ccnc4[nH]nc(C(F)(F)F)c34)c2)CC1 [Compound 290]
24 | < 50 | > 1200 | < 2800 | OCC1(c2cccc(-c3ccnc4[nH]nc(C(F)(F)F)c34)c2)CCC1 [Compound 291]
25 | < 50 | < 500 | > 1200 | CCC1(c2cc(C)cc(-c3ccnc4[nH]nc(C(F)(F)F)c34)c2)CNC(=O)O1 (stereo not drawn) [Compound 292]
26 | < 50 | < 500 | < 500 | CCC(F)(CN)c1cc(C)cc(-c2ccnc3[nH]nc(C(F)(F)F)c23)c1 (stereo not drawn) [Compound 293]
27 | < 500 | > 1200 | > 1200 | NCc1cccc(-c2ccnc3[nH]nc(C(F)(F)F)c23)c1 [Compound 294]
28 | > 700 | > 1200 | > 1200 | CC#CC1(c2cc(C)cc(-c3ccnc4[nH]nc(C(F)(F)F)c34)c2)CNC(=O)O1 (stereo not drawn) [Compound 295]
29 | < 50 | < 500 | > 1200 | CCC1(c2cc(C)cc(-c3ccnc4[nH]nc(C(F)(F)F)c34)c2)CNC(=S)O1 (stereo not drawn) [Compound 296]
30 | < 50 | < 500 | < 2800 | COC(CN)c1cc(C)cc(-c2ccnc3[nH]nc(C(F)(F)F)c23)c1 (stereo not drawn) [Compound 297]
31 | > 700 | > 1200 | > 1200 | NC(CC1CCCCC1)c1cccc(-c2ccnc3[nH]nc(C(F)(F)F)c23)c1 (stereo not drawn) [Compound 298]
32 | < 50 | < 2800 | < 500 | N#CC1(c2cc(CCCN)cc(-c3ccnc4[nH]ncc34)c2)CC1 [Compound 301]
33 | < 50 | < 2800 | < 500 | CCc1n[nH]c2nccc(-c3cc(CCCN)cc(C4(C#N)CC4)c3)c12 [Compound 302]
34 | < 50 | < 2800 | < 500 | NCC1(c2cccc(-c3ccnc4[nH]nc(C(F)(F)F)c34)c2)COC1 [Compound 305, (3-(3-(3-(trifluoromethyl)-1H-pyrazolo[3,4-b]pyridin-4-yl)phenyl)oxetan-3-yl)methanamine]
35 | < 50 | > 1200 | < 500 | CCc1n[nH]c2nccc(-c3cccc(C4(CN)COC4)c3)c12 [Compound 306]

Row | SMILES | Ki (PKC theta kinase) [nM] | Ki (PKC alpha kinase) [nM] | Ki (PKC delta kinase) [nM]
36 | NCC1(c2cccc(-c3ccnc4[nH]nc(Cl)c34)c2)CCC1 [Compound 260] | < 50 | < 500 | < 50
37 | NCC1(c2cc(F)cc(-c3ccnc4[nH]nc(Br)c34)c2)CCC1 [Compound 261] | < 50 | < 50 | < 50
38 | Cc1n[nH]c2nccc(-c3cc(F)cc(C4(CN)CCC4)c3)c12 [Compound 262] | < 50 | < 500 | < 500
39 | CCc1n[nH]c2nccc(-c3cc(F)cc(C4(CN)CCC4)c3)c12 [Compound 263] | < 50 | < 50 | < 500
40 | NCC1(c2cc(F)cc(-c3ccnc4[nH]nc(C5CC5)c34)c2)CCC1 [Compound 267] | < 50 | < 500 | < 500
41 | CCc1cc(-c2ccnc3[nH]nc(C(F)(F)F)c23)cc(C2(CN)CCC2)c1 [Compound 272] | < 50 | < 500 | < 2800
42 | NCC1(c2cc(F)cc(-c3ccnc4[nH]nc(C(F)(F)F)c34)c2)CCC1 [Compound 274] | < 50 | < 50 | < 500
43 | NCC1(c2cccc(-c3ccnc4[nH]nc(C(F)(F)F)c34)c2)CCC1 [Compound 280] | < 50 | < 500 | < 500
